Here are results for five compounds from publication PMC6272778, “New Lignans and Iridoid Glycosides from Dipsacus asper Wall” (Molecules, 2015).

The target of this test is T1, HIV-1 integrase (Human immunodeficiency virus type 1 group M subtype B, UniProt P04585).
T1 construct: pre-incubated with 15 pmol integrase (IN) at 37 °C
The experiment in a line: HIV-1 integrase strand transfer inhibition assay (microplate, magnetic beads). The format is biochemical, human immunodeficiency virus-1 (HIV-1). The settings on record: for HIV-1 integrase inhibition activity (in words): qualitative summary of the integrase assay; for IC50: strand transfer reaction, microplate screening method, positive control baicalein, read-out: IC50, inhibition activity against HIV-1 integrase. The protocol: The assays were performed in a 96-well microplate (Corning, New York, NY, USA) in a final volume of 50 μL. The wells were washed once with the reaction buffer (25 mM/L PIPES, pH 7.0, 10 mM/L β-mercaptoethanol, 5% (w/v) glycerol, 0.1 g/L bovin serum albumin (BSA), and 10 mM/L MnCl2). The compounds were diluted with dimethyl sulfoxide (DMSO) to a final concentration of 10% DMSO into the reaction volume (v/v) and pre-incubated with 15 pmol integrase (IN) at 37 °C in the reaction buffer in the absence of MnCl2 (10 mM/L) for 10 min. Subsequently, 1.5 pM donor DNA and 15 pM target DNA were added and the reaction was initiated. After incubation for 1 h at 37 °C, […] magnetic particles (6.7 × 10^8 beads/mL) and 51.5 μL binding buffer (10 mM/L Tris–HCl, pH 7.6, 2 M/LNaCl, 20 mM/L ethylene diamine tetraacetic acid (EDTA), and 0.1% [w/v] Tween 20) were added and incubated at 20 °C for 15 min. Then the wells holding the mixture were placed in a magnetic concentrator, the supernatant was discarded, and the wells were washed 3 times with phosphate buffered saline (PBS) containing 0.1% Tween20(PBST). Subsequently, 100 μL of 1:5000 diluted alkaline phosphatase (AP) conjugate anti-DIG antibody was added and incubated for 30 min at 37 °C. Finally, the wells were washed 3 times with PBST and the magnetic beads were transferred into fresh wells; 100 μL P-nitrophenyl phosphate (P-NPP) substrate (0.1 M/L Na2CO3, pH 9.5, 6.7 mM/L P-NPP, and 2 mM/L MgCl2) was added. The plates were read at 405 nm with a Model 680 microplate reader (Bio-Rad, Hercules, CA, USA). In the assay, baicalein was used as the positive control.
The IC50 values of the samples were calculated based on the assay results after curve fitting according to a non-linear regression.

`COc1cc([C@@H]2OC[C@@]3(O)[C@@H]2CO[C@H]3c2ccc(O)c(OC)c2)ccc1O` [Compound 2, (+)-8-hydroxy-7,7'-bis-epi-pinoresinol]: the “HIV-1 integrase inhibition activity (in words)” value was “weak HIV-1 integrase inhibitory activities” and the half-inhibitory concentration (IC50) amounted to 61.7 µM.

Consider `C=CC1C(OC2OC(CO)C(O)C(O)C2O)OC=C(C(=O)OC2CC3C(C(=O)OC)=COC(OC4OC(CO)C(O)C(O)C4O)C3C2C)C1CC1OC(C)C(C)O1` (stereo not drawn) [Compound 7, dipsanoside M], for which the “HIV-1 integrase inhibition activity (in words)” value is on record as “weak HIV-1 integrase inhibitory activities” and the 50% inhibitory concentration (IC50) was 84 µM.

With `O=c1cc(-c2ccccc2)oc2cc(O)c(O)c(O)c12` [baicalein, reference compound], the half-inhibitory concentration (IC50) came to 1.37 µM.

Take `COc1cc([C@@H]2OC[C@@]3(O)[C@@H]2CO[C@H]3c2cc(OC)c(O)c(OC)c2)ccc1O` [Compound 1, (+)-8-hydroxy-7,7'-bis-epi-fraxiresinol]: the “HIV-1 integrase inhibition activity (in words)” value is “weak HIV-1 integrase inhibitory activities” and the IC50 came to 53.3 µM.

Turning to `C=CC1C(OC2OC(CO)C(O)C(O)C2O)OC=C(C(=O)OC2CC3C(C(=O)OC)=COC(OC4OC(CO)C(O)C(O)C4O)C3C2C)C1CC1OC(C)C(C)O1` (stereo not drawn) [Compound 8, dipsanosides N], the “HIV-1 integrase inhibition activity (in words)” value is “weak HIV-1 integrase inhibitory activities” and the IC50 was 92.7 µM.
